Results: patent US20220265847A1, “METHODS AND COMPOSITIONS FOR TREATING NON-SMALL CELL LUNG CANCER” (Board of Regents, The University of Texas System, priority 2019, published 2022)

B1: vorsetuzumab-MMAE (conjugate, chains of the INN, looked up)
VH: QVQLVQSGAEVKKPGASVKVSCKASGYTFTNYGMNWVRQAPGQGLKWMGWINTYTGEPTYADAFKGRVTMTRDTSISTAYMELSRLRSDDTAVYYCARDYGDYGMDYWGQGTTVTVSS
VL: DIVMTQSPDSLAVSLGERATINCRASKSVSTSGYSFMHWYQQKPGQPPKLLIYLASNLESGVPDRFSGSGSGTDFTLTISSLQAEDVAVYYCQHSREVPWTFGQGTKVEIK
modifications: MMAE payload
B2: soluble CD27: recombinant soluble CD27, the binding partner of CD70 (protein, UniProt P26842 20-191, looked up)
extracellular domain: ATPAPKSCPERHYWAQGKLCCQMCEPGTFLVKDCDQHRKAAQCDPCIPGVSFSPDHHTRPHCESCRHCNSGLLVRNCTITANAECACRNGWQCRDKECTECDPLPNPSLTARSSQALSPHPQPTHLPYVSEMLEARTAGHMQTLADFRQLPARTLSTHWPPQRSLCSSDFIR
modifications: extracellular domain

Legend:
Type in all cases: cell-based
[1] = test system: HCC827 cells with induced expression of ZEB1; assay: EGFR TKI sensitivity of HCC827 cells after induced ZEB1 expression (EMT induction); settings: HCC827 (EGFR TKI sensitive) cells with induced ZEB1 expression; FIG. 4B-D / 10B
Description: Next, the inventors investigated the impact of EMT on CD70 expression in EGFR mutant NSCLC cell lines. The inventors induced EMT through forced expression of ZEB1 in HCC827 parental (EGFR TKI sensitive) cells. […] The inventors next evaluated whether CD70 expression was associated with a mesenchymal phenotype in NSCLC cell lines and human lung adenocarcinomas using the TCGA database.

[2] = test system: HCC4006 (EGFR mutant) cells; assay: Sensitivity of HCC4006 parental cells to EGFR TKIs compared to EGFR TKI resistant (ER) variants; settings: FIG. 1
Description: While EGFR mutant NSCLC patients are initially responsive to EGFR tyrosine kinase inhibitors (TKI), resistant disease inevitably emerges. The inventors derived a panel of NSCLC cell lines with acquired resistance to EGFR TKIs. […] CD70 is typically expressed on T-cells and B-cells, but can also be expressed by some malignant cells. Expression of CD70 by tumor cells is thought to contribute to an immunosuppressive environment by affecting/attracting regulatory T cells and promoting T cell apoptosis and exhaustion.
While EGFR mutant NSCLC patients are initially responsive to EGFR tyrosine kinase inhibitors (TKI), resistant disease inevitably emerges. The inventors derived a panel of NSCLC cell lines with acquired resistance to EGFR TKIs. […] Once tumors were visualized by CT imaging, doxycycline was withdrawn from a subset of animals to mimic EGFR inhibition. […] Tumors were collected an CD70 expression was analyzed by immunohistochemistry. […] Next, the inventors evaluated CD70 expression in EGFR mutant EGFRTKI naïve NSCLC clinical specimens and EGFR mutant NSCLC specimens collected after EGFR TKI resistance.

[3] = test system: HCC827 (EGFR mutant) cells; assay: Sensitivity of HCC827 parental cells to EGFR TKIs compared to EGFR TKI resistant (ER) variants; settings: FIG. 1
H1975 OR16 = assay: CD70 ADC relative cell viability; settings: H1975 OR16 vs H1975 parental (CD70 low); increasing concentrations; FIG. 14 and 16
Description: (§1) FIG. 14A-C. CD70 antibody-drug conjugates (ADCs) target CD70+ EGFR TKI resistant cell in vitro.
(§2) To determine whether CD70 antibody drug conjugates (ADCs) are a valid approach for targeting EGFR TKI resistant cells, the inventors treated H1975 cells (CD70 low and EGFR TKI sensitive) and H1975 OR5 and H1975 OR16 (both EGFR TKI resistant and CD70 high) with increasing concentrations of the CD70 ADCs cuzatuzumab-MMAE or vorsetuzumab-MMAE. […] The inventors further observed an additive anti-tumor cell effect when osimertinib was combined with anti-CD70 ADCs. (FIG. 15).

H1975 OR5 = assay: CD70 ADC relative cell viability
Description: as §1, §2

[4] = test system: HCC4006 osimertinib-resistant (OR) cells; assay: Soluble CD27 stimulation of CD70, downstream signalling by Western blotting; settings: FIG. 12
Protocol: FIG. 12. Stimulation of CD70 activates signal transduction pathways in EGFR TKI resistant cells. HCC4006 osimertinib-resistant (OR) cells were treated with soluble CD27, the binding partner of CD70, and the effect on downstream signal transduction pathways was evaluated by Western blotting.
Binding of CD27 to CD70 induces activation of signal transduction pathways downstream of CD70. To investigate the potential impact of CD70 signaling on EGFR TKI resistant cells, the inventors stimulated EGR TKI resistant cells with recombinant soluble CD27.

Row | Molecule | sensitivity to EGFR TKI after ZEB1 expression [1] | sensitivity to EGFR TKI [2] | sensitivity to EGFR TKI [3] | sensitivity to CD70 ADC versus H1975 parental cells (H1975 OR16) | anti-tumor cell activity (relative cell viability) (H1975 OR5; H1975 OR5, CD70 high, EGFR TKI resistant, FIG. 14) | sensitivity to CD70 ADC versus H1975 parental cells (H1975 OR5; H1975 OR5 vs H1975 parental (CD70 low), increasing concentrations, FIG. 14 and 16) | effect on downstream signal transduction pathways [4]
1 | C#Cc1cccc(Nc2ncnc3cc(OCCOC)c(OCCOC)cc23)c1 [erlotinib] | resistant | sensitive | sensitive | – | – | – | –
2 | C=CC(=O)Nc1cc(Nc2nccc(-c3cn(C)c4ccccc34)n2)c(OC)cc1N(C)CCN(C)C [osimertinib] | resistant | sensitive | sensitive | – | – | – | –
3 | B1 | – | – | – | more sensitive | anti-tumor cell activity | more sensitive | –
4 | B2 | – | – | – | – | – | – | phosphorylation of Akt and ERK
